pEC50: −log10 of the molar value.
Key:
[1] = Liver function tests (AST, ALT) after 4-week treatment; type: in vivo, cynomolgus monkey; conditions: after 4 wks; SARM‐2f 1, 3, 10 mg/kg daily p.o.; TE 2 mg/kg every 2 wks; vs vehicle
Protocol: (§1) The monkeys were divided into five groups by weight randomization (MiTOX system ver2.0, Mitsui E & S Systems Research Inc) on the last day of the habituation period. SARM‐2f was orally administered at daily doses of 1, 3, or 10 mg/kg for 4 weeks between 9:00 and 11:00 hours, using 0.5% w/v methylcellulose as the vehicle. TE was injected intramuscularly on Day 0 and Day 13; the dosing start was set at Day 0 at a dose of 2 mg/kg using sesame oil as the vehicle. The route of administration and dose of TE was selected according to the route and dose mentioned in the clinical indications. BW was measured every week before dosing (between 8:30 and 9:00 hours), and LBM was measured every 2 weeks after dosing and before feeding (between 11:30 and 14:30 hours) using an X‐ray bone density measuring device (Discovery, HOLOGIC USA). Blood collection for lipid profiles was conducted on the day after the completion of the four‐week multiple administration of SARM‐2f or TE. Plasma levels of total cholesterol (T‐chol), HDL‐c, low‐density lipoprotein cholesterol (LDL‐c), triglyceride (TG), alanine aminotransferase (ALT), and […] (AST) were measured by an automatic JCA‐BM8 analysis system (JEOL Ltd.). Plasma lipoprotein (a) (Lp (a)) levels were measured using a multiplate absorbance measuring system (Multiscan Ascent, Thermo Fisher Scientific KK).
(§2) In the reporter assays, EC50 was calculated using Graph Pad Prism version 6. The effects of SARM‐2f or TE on BW and LBM were analyzed by t test, with Bonferroni correction for repeated measurements.

[2] = Plasma lipid levels after 4-week treatment; type: in vivo, cynomolgus monkey; conditions: after 4 wks; SARM‐2f 1, 3, 10 mg/kg daily p.o.; TE 2 mg/kg every 2 wks; vs vehicle
Protocol: as §1, with “KK). […]” for “KK).”

[3] = TE intramuscular 20 mg/kg, monkeys, cited from earlier work
[4] = target: T1, human AR (Homo sapiens, UniProt P10275); experiment: AR reporter assay (MMTV-luc) in COS7 cells expressing human AR; type: cell-based; parameters: Emax: dose or concentration left out as unconfirmed; conditions: COS-7, read-out: maximal activation level
T1 construct: expressed in transfected cells; host or cells: COS7
T1 sequence (P10275 1-920): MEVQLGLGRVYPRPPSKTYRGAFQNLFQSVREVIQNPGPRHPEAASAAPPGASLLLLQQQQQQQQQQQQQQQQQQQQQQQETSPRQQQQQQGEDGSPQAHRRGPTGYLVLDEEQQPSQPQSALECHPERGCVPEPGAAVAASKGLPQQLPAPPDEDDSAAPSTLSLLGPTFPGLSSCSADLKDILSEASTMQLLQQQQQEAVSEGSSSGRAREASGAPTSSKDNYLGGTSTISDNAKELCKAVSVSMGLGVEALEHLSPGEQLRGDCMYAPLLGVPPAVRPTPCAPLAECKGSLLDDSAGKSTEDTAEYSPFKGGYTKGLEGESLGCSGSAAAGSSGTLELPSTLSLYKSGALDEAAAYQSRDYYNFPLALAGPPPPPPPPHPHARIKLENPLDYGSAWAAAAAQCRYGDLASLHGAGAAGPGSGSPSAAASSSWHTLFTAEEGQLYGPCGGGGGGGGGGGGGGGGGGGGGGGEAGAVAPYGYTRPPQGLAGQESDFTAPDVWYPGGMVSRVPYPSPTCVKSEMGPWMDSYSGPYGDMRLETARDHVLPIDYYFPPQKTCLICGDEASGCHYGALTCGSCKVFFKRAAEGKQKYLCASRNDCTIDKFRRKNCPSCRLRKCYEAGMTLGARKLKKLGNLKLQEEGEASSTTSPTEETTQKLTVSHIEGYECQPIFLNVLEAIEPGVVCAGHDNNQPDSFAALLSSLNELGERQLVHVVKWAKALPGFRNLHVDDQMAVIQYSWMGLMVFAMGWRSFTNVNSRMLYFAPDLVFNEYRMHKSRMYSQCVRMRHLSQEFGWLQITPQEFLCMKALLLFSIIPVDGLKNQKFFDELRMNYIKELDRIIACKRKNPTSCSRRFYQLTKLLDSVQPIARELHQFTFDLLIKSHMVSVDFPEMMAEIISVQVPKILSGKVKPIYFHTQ
Protocol: (§3) Two hours post‐transfection, the cells were plated in 96‐well plates at a density of 2 × 10^4 cells/well, and cultured at 37°C for 3 hours. […] Luciferase activity was measured using the Steady‐Glo Luciferase assay system (Promega) and an Envision Multimode Plate Reader (PerkinElmer).
as §2

[5] = target: T2, cynomolgus monkey AR (Macaca fascicularis, UniProt O97952); experiment: AR reporter assay (MMTV-luc) in COS7 cells expressing monkey AR; type: cell-based
T2 construct: expressed in transfected cells; host or cells: COS7
T2 sequence (O97952 1-895): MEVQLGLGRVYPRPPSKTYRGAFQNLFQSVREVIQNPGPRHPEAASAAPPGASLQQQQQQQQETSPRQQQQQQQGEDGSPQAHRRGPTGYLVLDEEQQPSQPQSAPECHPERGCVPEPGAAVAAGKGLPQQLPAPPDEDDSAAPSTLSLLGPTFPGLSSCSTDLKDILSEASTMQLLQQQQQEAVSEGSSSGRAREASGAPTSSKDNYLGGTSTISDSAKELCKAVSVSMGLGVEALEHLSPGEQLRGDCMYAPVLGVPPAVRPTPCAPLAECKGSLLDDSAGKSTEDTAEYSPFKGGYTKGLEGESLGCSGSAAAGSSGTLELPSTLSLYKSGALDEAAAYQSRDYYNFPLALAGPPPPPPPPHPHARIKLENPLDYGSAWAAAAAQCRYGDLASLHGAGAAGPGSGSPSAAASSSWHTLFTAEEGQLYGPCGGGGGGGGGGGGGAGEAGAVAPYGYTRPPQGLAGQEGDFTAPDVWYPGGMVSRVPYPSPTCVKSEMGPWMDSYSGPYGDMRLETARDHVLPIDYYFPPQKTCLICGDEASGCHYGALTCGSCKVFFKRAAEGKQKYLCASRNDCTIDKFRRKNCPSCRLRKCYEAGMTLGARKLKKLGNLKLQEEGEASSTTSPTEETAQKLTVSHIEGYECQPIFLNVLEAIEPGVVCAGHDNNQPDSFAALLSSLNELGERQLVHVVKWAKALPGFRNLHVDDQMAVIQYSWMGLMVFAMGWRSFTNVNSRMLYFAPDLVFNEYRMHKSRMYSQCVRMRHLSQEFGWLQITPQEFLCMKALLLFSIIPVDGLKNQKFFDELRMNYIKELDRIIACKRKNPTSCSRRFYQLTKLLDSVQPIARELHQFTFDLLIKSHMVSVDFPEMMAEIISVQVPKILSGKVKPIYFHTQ
Protocol: as §3, §2

[6] = target: T3, rat AR (Rattus norvegicus, UniProt P15207); experiment: AR reporter assay (MMTV-luc) in COS7 cells expressing rat AR; type: cell-based; parameters: Emax: dose or concentration left out as unconfirmed
T3 construct: expressed in transfected cells; host or cells: COS7
T3 sequence (P15207 1-902): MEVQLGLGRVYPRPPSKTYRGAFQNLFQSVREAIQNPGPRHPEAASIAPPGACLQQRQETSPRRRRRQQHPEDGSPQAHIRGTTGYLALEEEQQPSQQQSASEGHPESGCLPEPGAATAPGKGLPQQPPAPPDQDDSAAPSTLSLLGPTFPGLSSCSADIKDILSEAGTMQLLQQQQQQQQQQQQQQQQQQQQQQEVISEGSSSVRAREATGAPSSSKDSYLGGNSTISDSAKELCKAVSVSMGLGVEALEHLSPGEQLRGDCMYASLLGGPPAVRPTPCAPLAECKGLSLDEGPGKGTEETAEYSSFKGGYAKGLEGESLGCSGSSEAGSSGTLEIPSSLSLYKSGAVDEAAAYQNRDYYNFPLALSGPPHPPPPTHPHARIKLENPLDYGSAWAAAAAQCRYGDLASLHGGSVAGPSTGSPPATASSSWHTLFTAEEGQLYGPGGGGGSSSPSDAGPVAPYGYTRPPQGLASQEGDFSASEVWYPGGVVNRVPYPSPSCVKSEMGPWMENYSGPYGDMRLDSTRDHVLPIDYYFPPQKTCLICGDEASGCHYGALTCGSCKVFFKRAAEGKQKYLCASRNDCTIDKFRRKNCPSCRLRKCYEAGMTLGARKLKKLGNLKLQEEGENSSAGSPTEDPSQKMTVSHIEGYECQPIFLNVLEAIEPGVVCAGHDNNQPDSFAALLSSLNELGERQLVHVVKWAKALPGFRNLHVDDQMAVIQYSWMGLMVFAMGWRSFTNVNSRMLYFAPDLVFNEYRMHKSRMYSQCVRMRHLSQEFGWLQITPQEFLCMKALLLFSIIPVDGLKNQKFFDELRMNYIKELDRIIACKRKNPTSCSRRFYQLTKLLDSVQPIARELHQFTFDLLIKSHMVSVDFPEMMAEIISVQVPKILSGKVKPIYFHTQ
Protocol: as §3, §2

CCCCCCC(=O)O[C@H]1CC[C@H]2[C@@H]3CCC4=CC(=O)CC[C@]4(C)[C@H]3CC[C@]12C [TE, Testosterone enanthate, reference compound]
Blood level of ALT [1]: not changed
Blood level of AST [1]: not changed
Blood level of HDL‐c [2]: did not affect
Blood level of LDL‐c [2]: increase the LDL‐c level significantly
Blood level of TG [2]: did reduce the TG level
Blood level of T‐chol [2]: did not affect
Lp (a) protein level [2]: did not affect
effect on BW ([3]; within 4 weeks): significantly increasing the BW
blood testosterone nadir levels [3]: approximately 1500 ng/dL

C[C@](O)(COc1ccc(C#N)cc1)C(=O)Nc1ccc(C#N)c(C(F)(F)F)c1 [ostarine, reference compound]
Emax [4]: 141%
pEC50 [5]: 8.66
maximal AR activation ([5]; monkey AR, at 1 μmol/L, 1 μmol/L DHT = 100%): 126%
pEC50 [6]: 8.60
Emax ([6]; COS-7, read-out: maximal activation): 112%

From article PMC7005530, “A selective androgen receptor modulator SARM‐2f activates androgen receptor, increases lean body mass, and suppresses blood lipid levels in cynomolgus monkeys” (Pharmacology Research & Perspectives, 2020)
